Here are results for three molecules from patent US20250011792A1, “IRAP INHIBITORS FOR USE IN THE TREATMENT OF INFLAMMATORY DISEASES” (INSTITUT NATIONAL DE LA SANTÉ ET DE LA RECHERCHE MÉDICALE, priority 2021, published 2025).

In one assay the test system is IRAP wt mice. Briefly: Mouse ear challenge with arachidonic acid, cytokines quantified in ear tissue homogenates. Format: in vivo. The note with it: 1 μmol/kg intravenously at 24 h and 15 min prior to ear challenge; ear tissue homogenates normalized to total protein; FIG. 3. On the procedure: IRAP wt mice were injected i.v. with 6 μg HI-419 or vehicle 24 h and 15 min prior to ear challenge. Cytokine concentrations were quantified in ear tissue homogenates and normalized to total protein concentration.
Twenty microliters arachidonic acid (AA) (30 mg/ml in acetone) were applied to the inner and outer surface of one mouse ear, whereas the other ear was left untreated.
One hour after AA application, mice were sacrificed and ears were collected. The ear biopsies were dissociated using the pre-set “Protein” protocol of gentleMACS™ Octo Dissociator (Milteniy Biotec) in 800 μl ice-cold homogenization buffer [(PBS containing 0.4M NaCl, 0.05% Tween-20, 10 mM EDTA and protease inhibitor cocktail complete (Roche)]. The homogenates were cleared by 10 min centrifugation at 5000×g, and the total protein concentration determined in a BCA assay. Histamine or cytokines in the supernatant were quantified as described below.
(§1) Supernatants were collected and histamine was quantified using the Histamine Dynamic HTRF kit (Cisbio). TNF-α, IL-6, or IL-10 were quantified using specific cytokine ELISA kits. Kits were used according to the manufacturer's instructions.
(§2) Vehicle or inhibitor at a dose of 1 μmol/kg was administered intravenously at 24 h and 15 min prior to the ear challenge. […] We therefore hypothesized that in addition to blocking its catalytic activity, HI-419 may also affect the stability of IRAP.

Assay [1] has as its target T1, IRAP (Mus musculus, UniProt Q8C129).
T1 construct: endogenous in cells; host or cells: primary mouse mast cells (BMMC / peritoneal cell-derived mast cells) from wt mice
T1 sequence (Q8C129 1-1025): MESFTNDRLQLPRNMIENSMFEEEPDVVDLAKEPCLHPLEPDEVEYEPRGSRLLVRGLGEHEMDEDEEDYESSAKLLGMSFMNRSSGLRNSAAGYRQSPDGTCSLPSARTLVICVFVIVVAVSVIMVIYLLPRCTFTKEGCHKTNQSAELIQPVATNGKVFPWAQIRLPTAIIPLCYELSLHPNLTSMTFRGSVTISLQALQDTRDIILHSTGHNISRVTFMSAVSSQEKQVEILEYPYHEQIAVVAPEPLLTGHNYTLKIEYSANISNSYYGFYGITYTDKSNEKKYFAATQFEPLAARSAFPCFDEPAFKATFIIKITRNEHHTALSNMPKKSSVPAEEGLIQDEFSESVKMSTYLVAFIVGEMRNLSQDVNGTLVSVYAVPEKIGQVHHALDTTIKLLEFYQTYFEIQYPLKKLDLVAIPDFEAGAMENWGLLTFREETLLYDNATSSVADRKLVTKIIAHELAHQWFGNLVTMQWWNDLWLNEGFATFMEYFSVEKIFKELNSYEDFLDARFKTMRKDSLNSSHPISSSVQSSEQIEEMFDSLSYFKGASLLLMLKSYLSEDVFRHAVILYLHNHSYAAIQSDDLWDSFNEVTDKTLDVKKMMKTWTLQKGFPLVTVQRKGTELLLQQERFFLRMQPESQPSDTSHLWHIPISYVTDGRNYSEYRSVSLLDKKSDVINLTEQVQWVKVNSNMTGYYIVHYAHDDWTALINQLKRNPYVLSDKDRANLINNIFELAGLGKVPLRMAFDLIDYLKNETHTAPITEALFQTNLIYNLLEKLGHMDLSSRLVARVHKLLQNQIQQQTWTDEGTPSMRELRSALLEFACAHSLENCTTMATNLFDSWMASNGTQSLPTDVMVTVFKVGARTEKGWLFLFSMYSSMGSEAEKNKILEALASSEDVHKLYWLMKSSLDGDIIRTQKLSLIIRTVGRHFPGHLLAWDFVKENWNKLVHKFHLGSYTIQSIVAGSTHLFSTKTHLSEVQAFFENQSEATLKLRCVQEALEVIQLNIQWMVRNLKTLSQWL
The experiment in a line: Intracellular flow cytometry staining of IRAP expression after HFI-419 treatment. The assay is classed as cell-based. The note with it: starting from 24 h of treatment, data not shown. The protocol:
(§3) For TNF-α surface staining, PCMCs were stimulated with 1 μM ionomycin/10 nM PMA or 100 ng/ml LPS at 37° C. for 4 h in the presence of TAPI-1, washed with ice-cold PBS, and incubated at 4° C. with Fcblock (Miltenyi) followed by fluorochrome-conjugated CD117, FcεRI and TNF-α antibodies diluted in PBS-1% BSA. Intracellular staining of cytokines, IRAP and VAMP3 was performed using the BD intracellular staining kit and suitable species-specific fluorescent secondary antibodies (Life technologies).
as §2
On the technique in general: In flow cytometry, cells or beads pass a laser one at a time.

A further assay deals with mast cells. The experiment in a line: Cytokine secretion by mast cells treated with IRAP inhibitors for 24 h before ionomycin/PMA activation. The note with it: mast cells treated for 24 h prior to ionomycin/PMA activation; data not shown. The assay is classed as cell-based, mouse. On the procedure:
PCMCs were stimulated with 1 uM ionomycin/10 nM PMA or 100 ng/ml LPS at 37° C. for 6 h for cytokine secretion or with ionomycin/PMA or 10 ug/ml 48/80 for 30 min for histamine measurement.
as §1
Considering the aminopeptidase function of TRAP, we wondered if its catalytic activity was required for efficient cytokine secretion. To test this, we treated mast cells with the IRAP inhibitors HFI-419, 4u 55 and 22b (a gift from E. Stratikos) for 24 h prior to ionomycin/PMA activation.

The test system of the next assay is VAMP3. The experiment in a line: Intracellular flow cytometry staining of VAMP3 expression after HFI-419 treatment. The assay is classed as cell-based, mouse. The note with it: starting from 24 h of treatment, data not shown. The protocol:
as §3, §2

The next assay concerns wt cells (mast cells). Briefly: TNF-α secretion in the presence of endocytosis inhibitors. The assay is classed as cell-based, mouse. Particulars: wt versus IRAPko cells; data not shown.
Assay [2] relates to IRAP. Briefly: Subcellular localization of IRAP under endocytosis inhibition after LPS activation. The assay is classed as cell-based, mouse. The note with it: after three hours of LPS activation; data not shown.

Molecules are shown by their SMILES.

As to `CCOC(=O)C1=C(NC(C)=O)Oc2cc(O)ccc2C1c1cccnc1` (racemic) [HFI-419, (±)-Ethyl-2-acetamido-7-hydroxy-4-(pyridin-3-yl)-4H-chromene-3-carboxylate], in the assay on IRAP wt mice, the “IL-6 secretion in challenged ear versus vehicle-treated animals” value is “significantly less”, the “IL-10 secretion in challenged ear versus vehicle-treated animals” value was “unaffected” and the “TNF-α secretion in challenged ear versus vehicle-treated animals” value is reported as “significantly less”. Moreover, at IRAP [1], the “expression level of IRAP” value is reported as “decreased expression levels”. The “expression level of IRAP” value at IRAP [1] (listed as HI-419) is given as “reduced”. In the assay on mast cells, the “inhibition of IRAP-dependent cytokine secretion in vitro” value was “significant inhibition”. Also, the “expression level of VAMP3” value with VAMP3 is “decreased expression levels”.

As to `CS(=O)(=O)N1CCN(Cc2cc3nc(-c4cccc5[nH]ncc45)nc(N4CCOCC4)c3s2)CC1` [GDC-0941], the TNF-α secretion result in the assay on wt cells (mast cells) is reported as “reduce TNF-α secretion specifically in wt cells”.

For `O=C(N/N=C/c1ccc(O)c(O)c1)c1cc2ccccc2cc1O` [dynasore], in the assay on IRAP [2], the “IRAP subcellular localization (re-internalization)” value is “strong plasma membrane staining”. The TNF-α secretion entry in the assay on wt cells (mast cells) is “reduce TNF-α secretion specifically in wt cells”.
